Some results are limits rather than exact numbers.

This passage reports IC50 and EC50 results from patent US20150274777A1, “KETOAMIDE IMMUNOPROTEASOME INHIBITORS” (HOFFMANN-LA ROCHE INC., priority 2012, published 2015).

The target in one test is T1, β5i (Homo sapiens, UniProt P20618+P28062).
T1 construct: protease activity associated with the proteasome complex in cultured cells; endogenous in cells; host or cells: Ramos cells
Put plainly: Cell-Based Proteasome Activity/Selectivity Assay (Ramos cells), substrate (ANW)2Rh110. Particulars: highest concentration tested 20 μM, read-out: Ic50 ramos:ac-(anw)2-r110. The source says:
(§1) Cell-Based Proteasome Activity/Selectivity Assay
(§2) The Cell-Based Proteasome subunit activity/selectivity assay was a panel of 5 fluorogenic assays that independently measured the activity of β5c or β5i (chymotrypsin-like activity), β2c/2i (trypsin-like), and β1c or β1i (caspase-like) protease activity associated with the proteasome complex in cultured cells. Specifically, the following substrates were used for respective subunit activities: β1i: (PAL)2Rh110, β1c: (LLE)2 Rh110, β2c/2i: (KQL)2Rh110, β5c: (WLA)2Rh110, β5i: (ANW)2Rh110. The following procedure was followed:
(§3) Cell preparation: Plated 25 μl of Ramos cells (2×10^6/ml in DPBS) into half area plate (PerkinElmer Cat 6005569) to final 5×10^4 cells/well. Added 0.5 μl of 100×4-fold serial diluted test compounds or DMSO to each well. Highest concentration of compound tested was 20 μM, thus compound serial dilution started from […]. Incubated for 30 minutes at 37° C. Then equilibrated at room temperature for 15 minutes. Added 25 μl of 2× reaction mix consisting of 0.025% digitonin, 20 μM of each substrates and 0.5M sucrose in DPBS. Shaked for one minute @ 700 rpm. Incubated for 120 min at room temperature. Then read the plates with an Envision multilabel plate reader (PerkinElmer) with 500 nm excitation/519 nm emission.

The next test deals with T2, β5c (Homo sapiens, UniProt P20618+P28074).
T2 construct: protease activity associated with the proteasome complex in cultured cells; endogenous in cells; host or cells: Ramos cells
Put plainly: Cell-Based Proteasome Activity/Selectivity Assay (Ramos cells), substrate (WLA)2Rh110. Particulars: highest concentration tested 20 μM.
Source text: as §1, §2, §3

The next test relates to β2c/2i. Put plainly: Cell-Based Proteasome Activity/Selectivity Assay (Ramos cells), substrate (KQL)2Rh110. As to conditions: highest concentration tested 20 μM.
Source text: as §1, §2, §3

For the next test, the target named is T3, β1i (Homo sapiens, UniProt P28065+P40306).
T3 construct: protease activity associated with the proteasome complex in cultured cells; endogenous in cells; host or cells: Ramos cells
In words: Cell-Based Proteasome Activity/Selectivity Assay (Ramos cells), substrate (PAL)2Rh110. As to conditions: highest concentration tested 20 μM.
Source text: as §1, §2, §3

The target in the next test is T4, β1c (Homo sapiens, UniProt P28072+Q99436).
T4 construct: protease activity associated with the proteasome complex in cultured cells; endogenous in cells; host or cells: Ramos cells
In words: Cell-Based Proteasome Activity/Selectivity Assay (Ramos cells), substrate (LLE)2 Rh110. Particulars: highest concentration tested 20 μM.
Source text: as §1, §2, §3

Test [1] deals with IP10 level in PBMCs stimulated with CpG Type A. Put plainly: PBMC IP-10 Assay. As to conditions: CpG Type A 2.5 μM. The class given is cell-based. Here is the method:
PBMCs were isolated from whole blood as follows: Blood was collected in a sterile environment in heparinized tubes. Blood was diluted with an equal volume PBS/2% FCS and 30 ml of this mixture was added to ACCUSPIN tubes containing 15 ml Histopaque-1077 already centrifuged at 800 g for 30 seconds and warmed up at room temperature. The tubes were then centrifuged at 800 g for 20 minutes at room temperature with no brake. The mononuclear band, just above the polyethylene frit, was removed by Pasteur pipet. These mononuclear cells were washed three times with sterile PBS, counted, and resuspended in RPMI 1640 supplemented with 10% heat inactivated fetal calf serum, 10 mM HEPES, 1 mM sodium pyruvate, penicillin (50 U/ml), streptomycin (50 μg/ml) and glutamine (2 mM) to approximately 1.5×10^6/ml. Approximately 2×10^5 cells/well were plated in 96 well tissue culture plates (BD Falcon 353072), and preincubated 60 mi/37° C. with a titration of compounds, in a final concentration of 1% DMSO. Cells were then stimulated with CpG Type A (Invivogen, Cat #tlrl-2216; ODN 2216) at a final concentration of 2.5 μM. Cells were incubated overnight, and supernatants were removed. PBMC viability of cells remaining in the well was measured with ATPlite luminescence assay (Perkin-Elmer) per the manufacturer's instructions. Luminescence was measured on the Perkin-Elmer Envision, using the luminescence filter. IP10 level was measured with CXCL10/IP10 AlphaLISA kit (Perkin-Elmer) per the manufacturer's instructions, except halving all volumes. Fluorescence was measured on the Envision Multilabel plate reader, using the AlphaScreen standard settings.

On to `CCCC[C@H](NC(=O)[C@H](Cc1ccc(OC)cc1)NC(=O)[C@H](C)NC(=O)CN1CCOCC1)C(=O)C(=O)NC` [Example 14, (S)-3-{(S)-3-(4-Methoxy-phenyl)-2-[(S)-2-(2-morpholin-4-yl-acetylamino)-propionylamino]-propionylamino}-2-oxo-heptanoic acid methylamide], for which the 50% inhibitory concentration (IC50) is 699 nM on β5i; 16500 nM at β5c; over 20 µM in the test on β2c/2i; 426 nM at β1i; over 20 µM on β1c. Further, in test [1], the half-maximal effective concentration (EC50) was found to be 5180 nM.

On to `CCCC[C@H](NC(=O)[C@H](CCS(C)(=O)=O)NC(=O)[C@H](C)NC(=O)C1=C(C)c2ccccc2C1)C(=O)C(=O)NCc1ccccc1` [Example 15, 3-Methyl-1H-indene-2-carboxylic acid {(S)-1-[(S)-1-((S)-1-benzylaminooxalyl-pentylcarbamoyl)-3-methanesulfonyl-propylcarbamoyl]-ethyl}-amide], for which the IC50 on β5i is 101 nM; against β5c it was 3540 nM; with β2c/2i it was over 20 µM; on β1i, 210 nM; against β1c, 8.43 µM. The same compound yielded an EC50 in test [1] of 1910 nM.

As for `C[C@H](NC(=O)OCc1ccccc1)C(=O)N[C@@H](Cc1c[nH]c2ccccc12)C(=O)N[C@@H](Cc1ccccc1)C(=O)C(=O)NCc1ccccc1` [Example 16, {(S)-1-[(S)-1-((S)-1-Benzyl-2-benzylcarbamoyl-2-oxo-ethylcarbamoyl)-2-(1H-indol-3-yl)-ethylcarbamoyl]-ethyl}-carbamic acid benzyl ester], the IC50 on β5i is 17 nM; against β5c, 926 nM; in the test on β2c/2i, over 20 µM; against β1i, 274 nM; on β1c it was 18.3 µM. In test [1], this compound returned an EC50 of 1330 nM.

Regarding `COc1ccc(C[C@H](NC(=O)[C@H](C)NC(=O)OCc2ccccc2)C(=O)N[C@@H](Cc2ccccc2)C(=O)C(=O)NCc2ccccc2)cc1` [Example 17, {(S)-1-[(S)-1-((S)-1-Benzyl-2-benzylcarbamoyl-2-oxo-ethylcarbamoyl)-2-(4-methoxy-phenyl)-ethylcarbamoyl]-ethyl}-carbamic acid benzyl ester], the 50% inhibitory concentration (IC50) was 7 nM on β5i; 988 nM against β5c; over 20 µM in the test with β2c/2i; 417 nM at β1i; over 20 µM on β1c. The compound also came in with an EC50 in test [1] of 939 nM.

For the compound `C[C@H](NC(=O)C1Cc2ccccc2C1)C(=O)N[C@@H](Cc1c[nH]c2ccccc12)C(=O)N[C@@H](Cc1ccccc1)C(=O)C(=O)NCc1ccccc1` [Example 18, Indan-2-carboxylic acid {(S)-1-[(S)-1-((S)-1-benzyl-2-benzylcarbamoyl-2-oxo-ethylcarbamoyl)-2-(1H-indol-3-yl)-ethylcarbamoyl]-ethyl}-amide], the IC50 on β5i was 5 nM; against β5c it was 173 nM; with β2c/2i, 7.02 µM; against β1i, 441 nM; on β1c, 3.28 µM. Further, the EC50 in test [1] is 672 nM.

In the case of `COc1ccc(C[C@H](NC(=O)[C@H](C)NC(=O)C2Cc3ccccc3C2)C(=O)N[C@@H](Cc2ccccc2)C(=O)C(=O)NCc2ccccc2)cc1` [Example 19, Indan-2-carboxylic acid {(S)-1-[(S)-1-((S)-1-benzyl-2-benzylcarbamoyl-2-oxo-ethylcarbamoyl)-2-(4-methoxy-phenyl)-ethylcarbamoyl]-ethyl}-amide], the IC50 on β5i is 3 nM; at β5c, 55 nM; in the test on β2c/2i it was over 20 µM; on β1i, 234 nM; against β1c, over 20 µM. The same compound had an EC50 in test [1] of 695 nM.

As to `CC1=C(C(=O)N[C@@H](C)C(=O)N[C@@H](CCS(C)(=O)=O)C(=O)N[C@@H](Cc2ccccc2)C(=O)C(=O)NCc2ccccc2)Cc2ccccc21` [Example 20, 3-Methyl-1H-indene-2-carboxylic acid {(S)-1-[(S)-1-((S)-1-benzyl-2-benzylcarbamoyl-2-oxo-ethylcarbamoyl)-3-methanesulfonyl-propylcarbamoyl]-ethyl}-amide], the half-maximal inhibitory concentration (IC50) on β5i was 15 nM; at β5c, 157 nM; in the test on β2c/2i, over 20 µM; against β1i, 738 nM; against β1c, over 20 µM. Moreover, the EC50 in test [1] worked out at 1640 nM.

Turning to `COc1ccc(C[C@H](NC(=O)[C@H](C)NC(=O)c2cc(C)on2)C(=O)N[C@@H](Cc2ccccc2)C(=O)C(=O)NCc2ccccc2)cc1` [Example 21, 5-Methyl-isoxazole-3-carboxylic acid {(S)-1-[(S)-1-((S)-1-benzyl-2-benzylcarbamoyl-2-oxo-ethylcarbamoyl)-2-(4-methoxy-phenyl)-ethylcarbamoyl]-ethyl}-amide], the half-inhibitory concentration (IC50) was 7 nM at β5i; 765 nM against β5c; over 20 µM in the test with β2c/2i; 210 nM against β1i; over 20 µM against β1c. In addition, the EC50 in test [1] worked out at 3490 nM.

In the case of `C[C@H](NC(=O)CN1CCOCC1)C(=O)N[C@@H](Cc1c[nH]c2ccccc12)C(=O)N[C@@H](Cc1ccccc1)C(=O)C(=O)NCc1ccccc1` [Example 22, (S)—N-Benzyl-3-{(S)-3-(1H-indol-3-yl)-2-[(S)-2-(2-morpholin-4-yl-acetylamino)-propionylamino]-propionylamino}-2-oxo-4-phenyl-butyramide], the IC50 on β5i is 124 nM; against β5c, 3300 nM; with β2c/2i it was over 20 µM; on β1i it was 1100 nM; on β1c, over 20 µM. The same compound had an EC50 in test [1] of 5780 nM.

Consider `COC[C@H](NC(=O)C1Cc2ccccc2C1)C(=O)N[C@@H](Cc1ccc(OC)cc1)C(=O)N[C@@H](Cc1ccccc1)C(=O)C(=O)NCc1ccccc1` [Example 23, Indan-2-carboxylic acid {(S)-1-[(S)-1-((S)-1-benzyl-2-benzylcarbamoyl-2-oxo-ethylcarbamoyl)-2-(4-methoxy-phenyl)-ethylcarbamoyl]-2-methoxy-ethyl}-amide], for which the IC50 on β5i is 1 nM; at β5c, 5 nM; with β2c/2i, over 20 µM; against β1i it was 97 nM; against β1c it was 7.32 µM. In addition, it took 356 nM to reach a half-maximal effect in test [1] (EC50).

Take `CC(C)C[C@H](NC(=O)[C@H](C)NC(=O)C1Cc2ccccc2C1)C(=O)N[C@@H](Cc1ccccc1)C(=O)C(=O)NCc1ccccc1` [Example 24, Indan-2-carboxylic acid {(S)-1-[(S)-1-((S)-1-benzyl-2-benzylcarbamoyl-2-oxo-ethylcarbamoyl)-3-methyl-butylcarbamoyl]-ethyl}-amide]: the IC50 at β5i was 5 nM; at β5c, 272 nM; with β2c/2i, 5.71 µM; at β1i, 441 nM; against β1c it was 7.05 µM. The EC50 in test [1] came to 433 nM.

For `COc1ccc(C[C@H](NC(=O)[C@H](C)NC(=O)C2=C(C)c3ccccc3C2)C(=O)N[C@@H](Cc2ccccc2)C(=O)C(=O)NCc2ccccc2)cc1` [Example 25, 3-Methyl-1H-indene-2-carboxylic acid {(S)-1-[(S)-1-((S)-1-benzyl-2-benzylcarbamoyl-2-oxo-ethylcarbamoyl)-2-(4-methoxy-phenyl)-ethylcarbamoyl]-ethyl}-amide], the IC50 is 9 nM on β5i; 846 nM on β5c; over 20 µM in the test with β2c/2i; over 20000 nM against β1i; over 20 µM against β1c. Further, in test [1], the EC50 was found to be 1080 nM.

The IC50 is the midpoint of a concentration-inhibition curve. For orientation: EC50 means the concentration that produces a half-maximal response. Low values mean a more potent agent, high ones a less potent agent.
